Assay results from patent EP0137083A1, “1,5-Benzothiazepine derivatives and production thereof” (HAMARI YAKUHIN KOGYO KABUSHIKI KAISHA also known as HAMARI …, priority 1983, dated 1985).

Experiments:
Type in all cases: in vivo
[1] = system: writhing syndrome; assay: Analgesic activity, mouse anti-writhing method (acetic acid-induced writhing); conditions: mice, I.P., 45 minutes before acetic acid
Method: (2) Analgestic Activity (Mouse Anti-Writhing Method)
Groups of 5 mice each, weighing 26 - 32 g, were treated intraperitoneally with the compounds. The method is based on the antagonism of a writhing syndrome (abnormal contraction and twisting of the body) produced by the intraperitoneal injection of 10 ml/kg of 0.7 X acetic acid-saline solution. Ten minutes after the acetic acid injection, the number of writhes observed in a 10 minute counting period was recorded. The compound was administered 45 minutes before the acetic acid injection.

[2] = system: Yeast-induced Pyresis in Rats; assay: Anti-pyretic activity, temperature regulation in yeast-induced pyretic rats; conditions: I.P.; for Rectal Temperature (C^o, Mean+ S.D.), Time after Treatment (hour) 0: 0 hour (just prior to drug administration); for Rectal Temperature (C^o, Mean+ S.D.), Time after Treatment (hour) 0.5: 0.5 hour; for Rectal Temperature (C^o, Mean+ S.D.), Time after Treatment (hour) 1.0: 1.0 hour; for Rectal Temperature (C^o, Mean+ S.D.), Time after Treatment (hour) 1.5: 1.5 hour; for Rectal Temperature (C^o, Mean+ S.D.), Time after Treatment (hour) 2.0: 2.0 hour; for Rectal Temperature, Change C^o: average at 0.5-2.0 hours versus vehicle (39.8)
Method: (3) Anti-pyretic Activity (Temperature Regulation in Pyretic Rats) Rats, weighing 220 - 300 g, were treated subcutaneously in the nape of the neck with 6 ml of 40 % suspension of dried Brewer's yeast in distilled water. Groups of 3 rats were treated intraperitoneally with the compound 17 hours challenge. Rectal temperature were recorded with a thermister type thermometer (Type BMA-77 produced by Natsume Seisalusho, Japan) just prior to the drug administration and at 30 minutes intervals for 2 hours.

[3] = system: Mice; assay: Minimum lethal dose test in mice (mortality after intraperitoneal dosing); conditions: I.P.; for No. of dead Animals, Day of test 0 / No. of dead Animals, Day of test 1 / No. of dead Animals, Day of test 2 / No. of dead Animals, Total: 2 animals
Method: (1) Minimum Lethal Dose Test in Mice
Groups of 2 mice each, weighing 29 - 36 g, were treated intraperitoneally with the compound and observed for signs of - central, autaonomic and toxic responses for 5 hours. Mortality counts were made on days 0, 1 and 2 (day 0 is the dosing day).

[4] = 30 mg/kg, first series (vehicle 10.9 ± 8.9)
[5] = 60 mg/kg, first series (vehicle 10.9 ± 8.9)
[6] = 60 mg/kg, second series (vehicle 12.8 ± 6.3)

CC(C)=CCN1CCC2(C)c3cc(O)ccc3CC1C2C (centres unmarked) [Pentazo-cine, reference compound]
% Change from Control [1, 4]: -83.5% | No. of Writhes (Mean + S.D.) [1, 4]: 1.8 ± 2.2

COc1ccc(C2Sc3ccccc3N(CCN(C)C)C(=O)C2=O)cc1 (centres unmarked) [Ia, 2-(4-methoxyphenyl)-2,3-dihydro-5-(2-dimethylaminoethyl)-1,5-benzothiazepine-3,4(5H)-dione]
% Change from Control [1, 5]: -92.7% | No. of Writhes (Mean + S.D.) [1, 5]: 0.8 ± 1.3 | % Change from Control [1, 6]: -100.0% | No. of Writhes (Mean + S.D.) [1, 6]: 0.0 ± 0.0 | Rectal Temperature, Average at 0.5-2.0 Hours Post-tretment ([2]; 60 mg/kg): 38.7 C^o | Rectal Temperature (C^o, Mean+ S.D.), Time after Treatment (hour) 0 ([2]; 60 mg/kg): 39.7±0.15 C^o | Rectal Temperature (C^o, Mean+ S.D.), Time after Treatment (hour) 0.5 ([2]; 60 mg/kg): 38.4±0.57 C^o | Rectal Temperature (C^o, Mean+ S.D.), Time after Treatment (hour) 1.0 ([2]; 60 mg/kg): 38.4±0.35 C^o | Rectal Temperature (C^o, Mean+ S.D.), Time after Treatment (hour) 1.5 ([2]; 60 mg/kg): 38.8±0.49 C^o | Rectal Temperature (C^o, Mean+ S.D.), Time after Treatment (hour) 2.0 ([2]; 60 mg/kg): 39.0±0.51 C^o | Rectal Temperature, Change C^o ([2]; 60 mg/kg): -1.1 C^o | No. of dead Animals, Day of test 0 ([3]; 10 mg/kg): 0 | No. of dead Animals, Day of test 1 ([3]; 10 mg/kg): 0 | No. of dead Animals, Day of test 2 ([3]; 10 mg/kg): 0 | No. of dead Animals, Total ([3]; 10 mg/kg): 0 | No. of dead Animals, Day of test 0 ([3]; 30 mg/kg): 0 | No. of dead Animals, Day of test 1 ([3]; 30 mg/kg): 0 | No. of dead Animals, Day of test 2 ([3]; 30 mg/kg): 0 | No. of dead Animals, Total ([3]; 30 mg/kg): 0 | No. of dead Animals, Day of test 0 ([3]; 100 mg/kg): 0 | No. of dead Animals, Day of test 1 ([3]; 100 mg/kg): 0 | No. of dead Animals, Day of test 2 ([3]; 100 mg/kg): 0 | No. of dead Animals, Total ([3]; 100 mg/kg): 0 | No. of dead Animals, Day of test 0 ([3]; 300 mg/kg): 2 | No. of dead Animals, Total ([3]; 300 mg/kg): 2 | Minimum Acute Lethal Dose ([3]; mortality counted on days 0, 1 and 2): 300 mg/kg

Cc1c(N(C)C)c(=O)n(-c2ccccc2)n1C [Amino-pyrin, reference compound]
Rectal Temperature, Average at 0.5-2.0 Hours Post-tretment ([2]; 30 mg/kg): 37.5 C^o | Rectal Temperature (C^o, Mean+ S.D.), Time after Treatment (hour) 0 ([2]; 30 mg/kg): 39.6±0.10 C^o | Rectal Temperature (C^o, Mean+ S.D.), Time after Treatment (hour) 0.5 ([2]; 30 mg/kg): 38.1±0.50 C^o | Rectal Temperature (C^o, Mean+ S.D.), Time after Treatment (hour) 1.0 ([2]; 30 mg/kg): 37.2±0.58 C^o | Rectal Temperature (C^o, Mean+ S.D.), Time after Treatment (hour) 1.5 ([2]; 30 mg/kg): 37.2±0.53 C^o | Rectal Temperature (C^o, Mean+ S.D.), Time after Treatment (hour) 2.0 ([2]; 30 mg/kg): 37.4±0.46 C^o | Rectal Temperature, Change C^o ([2]; 30 mg/kg): -2.3 C^o
